Laboratory results: US20070053834A1, “Radioligands for the TRP-M8 receptor and methods therewith” (priority 2003, published 2007)

Biological target: T1, TRP-M8 receptor (Homo sapiens, UniProt Q7Z2W7)
Test: Patch-clamp whole-cell recordings in TRP-M8 transfected HEK cells
Format: cell-based
Set-up: expressed in transfected cells; host or cells: HEK (human embryonic kidney) cells, permanently transfected
Settings: whole-cell configuration, room temperature (20-23° C.)
From the text: (§1) Cooling Actions on Skin. […] In Vitro Assays for TRP-M8 Activation. […] Brit. J Pharmacol. 2004 Feb; 141(4):737-45], and by A. K. Vogt-Eisele, D. Bura, H. Hatt, and E. T. Wei. [N-Alkylcarboxamide Cooling Agents: Activities on Skin and Cells with TRPM8 and TRPA1 Receptors. Acta Dermato-Venereol. 85: 468, 2005.] The data here were collected for the applicant by Dr. Afrodite Lourbakos of Unilever Research and Development, the Netherlands, using similar transfection methods and a FLIPR assay system. For the patch-clamp studies, using measurements of intracellular voltage changes, some of the data reported here were collected by Dr. Matthias Bödding of the University of the Saarland, and by Dr. Angela Vogt-Eisele of the Ruhr University at Bochum, Germany. FLIPR assay Human embryonic kidney (HEK) cells were permanently trausfected with plasmids containging the cDNA coding for the gene for the human TRP-M8 receptor. These cells were then incubated with a calcium fluorescence indicator (Fura-2) and incubated at either 29 or 37° C. These cells were then distributed into a 96-well fluorescence-plate image reader with automated drug dilution and computerized software for dose-response analysis. Cacium ion influx into cells after stimulation with compounds was quantified in fluorescence units. Compounds were dissolved in DMSO by ultrasonication to a 0.1 M solution. 5 μl of this stock was added to 5 mg of cyclodextrin and 5 ml of 140 Na-Tyrode, to achieve various final test concentrations.
Patch-Clamp Electrophysiological Recordings. HEK cells were prepared as above. Membrane currents were recorded in the whole-cell configuration using an EPC-9 amplifier (HEKA Elektronik, Lambrecht, Germany) as described previously (Bödding et al. 2002). […] Extracellular solution contained (in mM): 145 NaCl, 2 CaCl2, 2.8 KCl, 2 MgCl2, 11 glucose, 10 HEPES, adjusted to pH 7.2 with NaOH. Drugs were applied in the bath solution by a custom-made local perfusion system. The series resistance was compensated for 80 % and ranged between 5 and 10 MΩ. Currents were filtered using an 8-pole Bessel filter at 2.9 kHz and digitised at 100 μs. Voltage ramps (−110 mV to 90 mV in 50 ms) were applied at 0.5 Hz from a holding potential of −10 mV using PULSE software (HEKA Electronics). Several parameters such as capacitance, series resistance and holding current were monitored simultaneously at a slower rate (2 Hz) using the X-Chart display (HEKA Electronics). A liquid junction potential of 10 mV was applied to all voltages. All experiments were carried out at room temperature (20-23° C.). Internal solutions were kept on ice to minimize hydrolysis of ATP.

T1 sequence (Q7Z2W7 whole entry): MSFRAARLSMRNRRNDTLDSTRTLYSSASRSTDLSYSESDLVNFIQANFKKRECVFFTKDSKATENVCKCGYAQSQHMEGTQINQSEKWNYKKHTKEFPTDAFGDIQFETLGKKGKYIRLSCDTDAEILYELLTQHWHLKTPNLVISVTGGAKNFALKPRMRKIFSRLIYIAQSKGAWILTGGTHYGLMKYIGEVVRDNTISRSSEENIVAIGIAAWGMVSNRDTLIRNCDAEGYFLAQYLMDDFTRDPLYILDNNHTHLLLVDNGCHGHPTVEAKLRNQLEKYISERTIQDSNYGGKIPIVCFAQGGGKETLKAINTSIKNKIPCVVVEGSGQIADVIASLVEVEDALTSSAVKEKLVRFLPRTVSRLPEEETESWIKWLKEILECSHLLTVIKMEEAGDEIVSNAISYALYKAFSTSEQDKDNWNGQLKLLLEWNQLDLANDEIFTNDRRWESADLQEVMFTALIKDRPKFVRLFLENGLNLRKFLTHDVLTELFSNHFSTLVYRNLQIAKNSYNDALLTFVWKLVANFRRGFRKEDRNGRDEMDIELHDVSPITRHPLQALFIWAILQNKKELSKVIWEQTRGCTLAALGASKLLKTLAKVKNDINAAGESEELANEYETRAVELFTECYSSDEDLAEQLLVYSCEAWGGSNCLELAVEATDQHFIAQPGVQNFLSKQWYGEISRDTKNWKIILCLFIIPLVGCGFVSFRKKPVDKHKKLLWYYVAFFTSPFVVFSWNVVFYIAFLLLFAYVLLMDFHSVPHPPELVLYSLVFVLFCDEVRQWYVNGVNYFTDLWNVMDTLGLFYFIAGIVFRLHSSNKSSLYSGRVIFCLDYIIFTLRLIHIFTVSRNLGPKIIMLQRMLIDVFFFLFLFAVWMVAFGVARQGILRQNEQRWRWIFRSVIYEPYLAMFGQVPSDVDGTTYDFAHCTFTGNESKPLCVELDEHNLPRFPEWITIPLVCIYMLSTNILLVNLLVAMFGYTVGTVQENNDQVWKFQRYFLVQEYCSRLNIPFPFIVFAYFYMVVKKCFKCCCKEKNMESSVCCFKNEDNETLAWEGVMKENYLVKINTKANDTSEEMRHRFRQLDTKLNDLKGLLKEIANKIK

| Compound | EC50 [nM] |
| --- | --- |
| COc1ccc(NC(=O)C2CC(C)CCC2C(C)C)cc1 (stereo not drawn) [CPS-112 (WS-12), N-(4′-methoxyphenyl)-2-isopropyl-5-methylcyclohexanecarboxamide] | 200 |
| O=C1NC(c2cccc([N+](=O)[O-])c2)=CCN1c1ccccc1O [icilin, reference compound] | 1400 |

The remaining lines, values ahead:

| EC50 [nM] | Compound |
| --- | --- |
| 3000 | CC1CCC(C(C)C)C(C(=O)Nc2ccc(S(=O)(=O)Nc3ncccn3)cc2)C1 (stereo not drawn) [CPS-125, 2-Isopropyl-5-methyl-cyclohexanecarboxylic acid [4-(pyrimidin-2-ylsulfamoyl)-phenyl]-amide] |
| 100 | CC1CCC(C(C)C)C(C(=O)N(C)C[C@H](O)c2cccc(O)c2)C1 (stereo partly drawn) [CPS-195, 2-Isopropyl-5-methyl-cyclohexanecaboxylic acid [2-hydroxy-2-(3-hydroxy-phenyl)-ethyl]-methyl-amide] |
| 1200 | CC1CCC(C(C)C)C(C(=O)Nc2ccc(F)cc2)C1 (stereo not drawn) [CPS-124, N-(4′-fluorophenyl)-2-isopropyl-5-methylcyclohexanecarboxamide] |
| 300 | COc1ccc(NC(=O)C2CC(C)CCC2C(C)C)c(I)c1 (stereo not drawn) [CPS-129, N-(2′-iodo-4′methoxyphenyl)-2-isopropyl-5-methylcyclohexanecarboxamide] |
| 1200 | COc1ccc(NC(=O)C2CC(C)CCC2C(C)C)cc1F (stereo not drawn) [CPS-113, N-(3′-fluoro, 4′-methoxyphenyl)-2-isopropyl-5-methyl-cyclohexanecarboxamide] |

Biological target: T1, TRP-M8 receptor
Test: FLIPR calcium influx assay in HEK cells transfected with human TRP-M8
Format: cell-based
Set-up: expressed in transfected cells; host or cells: HEK (human embryonic kidney) cells, permanently transfected
Settings: HEK cells with human TRP-M8, Fura-2, 29 or 37° C.
From the text: as §1

| Compound | EC50 [nM] |
| --- | --- |
| COc1ccc(NC(=O)C2CC(C)CCC2C(C)C)cc1 (stereo not drawn) [CPS-112 (WS-12), N-(4′-methoxyphenyl)-2-isopropyl-5-methylcyclohexanecarboxamide] | 600 |
| CC1CCC(C(C)C)C(C(=O)Nc2ccc([N+](=O)[O-])c(C(F)(F)F)c2)C1 (stereo not drawn) [CPS-138] | > 100000 |
| O=C1NC(c2cccc([N+](=O)[O-])c2)=CCN1c1ccccc1O [icilin, reference compound] | 800 |

Continued, values first:

| EC50 [nM] | Compound |
| --- | --- |
| > 100000 | CC1CCC(C(C)C)C(C(=O)Nc2ccc(OC(F)(F)F)cc2)C1 (stereo not drawn) [CPS-127] |
| 6000 | COc1cccc(NC(=O)C2CC(C)CCC2C(C)C)c1 (stereo not drawn) [CPS-141] |
| 6000 | CC1CCC(C(C)C)C(C(=O)Nc2ccc(Br)cc2)C1 (stereo not drawn) [CPS-123] |
| 6000 | CC1CCC(C(C)C)C(C(=O)Nc2ccc(S(=O)(=O)Nc3ncccn3)cc2)C1 (stereo not drawn) [CPS-125, 2-Isopropyl-5-methyl-cyclohexanecarboxylic acid [4-(pyrimidin-2-ylsulfamoyl)-phenyl]-amide] |
| 1300 | CC1CCC(C(C)C)C(C(=O)Nc2ccc(F)cc2)C1 (stereo not drawn) [CPS-124, N-(4′-fluorophenyl)-2-isopropyl-5-methylcyclohexanecarboxamide] |
| 500 | CCOc1ccc(NC(=O)C2CC(C)CCC2C(C)C)cc1 (stereo not drawn) [CPS-128] |
| 10000 | CC1CCC(C(C)C)C(C(=O)Nc2ccc(I)cc2)C1 (stereo not drawn) [CPS-120] |
| 1300 | COc1ccc(NC(=O)C2CC(C)CCC2C(C)C)cc1F (stereo not drawn) [CPS-113, N-(3′-fluoro, 4′-methoxyphenyl)-2-isopropyl-5-methyl-cyclohexanecarboxamide] |

Biological target: T1, TRP-M8 receptor
Test: Cold sensation threshold on tongue (filter paper test)
Format: in vivo
Set-up: The endogenous TRP-M8 receptor is a physiological receptor designed to detect temperature changes; from tissue; host or cells: tongue (sensory nerve endings), in vivo
Settings: filter paper 1 × 1 cm impregnated with compound, on tongue, 30 sec; presence or absence of cooling
From the text: In Vivo Assays for TRP-M8 Activation. The endogenous TRP-M8 receptor is a physiological receptor designed to detect temperature changes in its environment and to transmit this signal to the central nervous system so that appropriate regulatory responses can be initiated (e.g. vasoconstriction to reduce heat loss, putting on warmer clothing, avoiding the cold environment).
The TRP-M8 receptor on cold sensory nerve endings and on malignant cells, for example in the prostate, are biochemically identical proteins. Thus, the potency of a molecule to elicit cold sensations, for example on the tongue or skin, was used as surrogate index of the binding affinity of the molecule for the TRP-M8 receptor. A number of potent “N-radiohaloaryl-carboxamides” were synthesized and tested for use as precursors of the inventive compounds and the results are shown in Table 1.

| Compound | Cold Sensation Threshold on Tongue [µg] |
| --- | --- |
| CC1CCC(C(C)C)C(C(=O)Nc2ccc([N+](=O)[O-])cc2)C1 (stereo not drawn) [N-(4′-nitrophenyl)-2-isopropyl-5-methylcyclohexanecarboxamide] | 0.3 |
| CC(=O)c1ccc(NC(=O)C2CC(C)CCC2C(C)C)cc1 (stereo not drawn) [N-(4′-acetylphenyl)-2-isopropyl-5-methylcyclohexanecarboxamide] | 2 |
| COc1ccc(NC(=O)C2(C(C)C)CCCCCC2)c(C)c1 [N-(4′-methoxy-2′-methylphenyl)-1-isopropylcycloheptanecarboxamide] | 0.2 |
| CC1CCC(C(C)C)C(C(=O)Nc2ccccc2O)C1 (stereo not drawn) [N-(2′-hydroxyphenyl)-2-isopropyl-5-methylcyclohexanecarboxamide] | 0.5 |
| CC1CCC(C(C)C)C(C(=O)Nc2ccc(Cl)cc2)C1 (stereo not drawn) [N-(4′-chlorophenyl)-2-isopropyl-5-methylcyclohexanecarboxamide] | 8 |
| Cc1ccc(NC(=O)C2CC(C)CCC2C(C)C)c(C)c1 (stereo not drawn) [N-(2′,4′-dimethylphenyl)-2-isopropyl-5-methylcyclohexanecarboxamide] | 0.1 |
| Cc1ccc(NC(=O)C(C)(C(C)C)C(C)C)c(C)c1 [N-(2′,4′-dimethylphenyl)-2-isopropyl-2,3-dimethylbutyramide] | 1 |
| Cc1ccc(NC(=O)C2CC(C)CCC2C(C)C)cc1O (stereo not drawn) [N-(3′-hydroxy-4′-methylphenyl)-2-isopropyl-5-methylcyclohexanecarboxamide] | 0.1 |
| CC1CCC(C(C)C)C(C(=O)Nc2ccc(O)cc2)C1 (stereo not drawn) [N-(4′-hydroxyphenyl)-2-isopropyl-5-methylcyclohexanecarboxamide] | 1 |
| Cc1ccc(NC(=O)C2(C(C)C)CCCCCC2)cc1C [N-(3′,4′-dimethylphenyl)-1-isopropylcycloheptanecarboxamide] | 15 |
| COc1ccc(NC(=O)C2CC(C)CCC2C(C)C)cc1 (stereo not drawn) [N-(4′-methoxyphenyl)-2-isopropyl-5-methylcyclohexanecarboxamide] | 0.1 |
| Cc1ccc(NC(=O)C2(C(C)C)CCCCCC2)c(C)c1 [N-(2′,4′-dimethylphenyl)-1-isopropylcycloheptanecarboxamide] | 15 |
| COc1ccc(NC(=O)C(C)(CC(C)C)C(C)C)cc1 (stereo not drawn) [N-(4′-methoxyphenyl)-2-isopropyl-2,4-dimethylpentanamide] | 2 |
| CCC1(C(=O)Nc2ccc(OC)cc2)CCCCCC1C (stereo not drawn) [N-(4′-methoxyphenyl)-1-ethyl-2-methylcycloheptanecarboxamide] | 6 |
| COc1ccc(NC(=O)C2(C(C)C)CCCCCC2)cc1OC [N-(3′,4′-dimethoxyphenyl)-1-isopropylcycloheptanecarboxamide] | 5 |
| CC1CCC(C(C)C)C(C(=O)NCc2ccccc2)C1 (stereo not drawn) [N-phenylmethyl-2-isopropyl-5-methylcyclohexanecarboxamide] | 20 |
| CCOC(=O)c1ccc(NC(=O)C2CC(C)CCC2C(C)C)cc1 (stereo not drawn) [N-(4′-ethoxycarbonylphenyl)-2-isopropyl-5-methylcyclohexanecarboxamide] | 5 |
| Cc1ccc(NC(=O)C2(C(C)C)CCCCCC2)cc1O [N-(3′-hydroxy-4′-methylphenyl)-1-isopropylcycloheptanecarboxamide] | 1 |
| CC1CCC(C(C)C)C(C(=O)Nc2ccc(F)cc2)C1 (stereo not drawn) [N-(4′-fluorophenyl)-2-isopropyl-5-methylcyclohexanecarboxamide] | 0.5 |
| Cc1ccc(NC(=O)C(C)(C(C)C)C(C)C)cc1C [N-(3′,4′-dimethylphenyl)-2-isopropyl-2,3-dimethylbutyramide] | 3 |
| COc1ccc(NC(=O)C(C)(C(C)C)C(C)C)cc1 [N-(4′-methoxyphenyl)-2-isopropyl-2,3-dimethylbutyramide] | 0.5 |
| CC1CCC(C(C)C)C(C(=O)Nc2ccccc2)C1 (stereo not drawn) [N-phenyl-2-isopropyl-5-methylcyclohexanecarboxamide] | 20 |

Same assay, conditions: oral

| Compound | oral cooling threshold [µg] |
| --- | --- |
| CNC(=O)C1CC(C)CCC1C(C)C (stereo not drawn) [N-methyl p-menthane-3-carboxamide, reference compound] | 1.1 |
| CCNC(=O)C1CC(C)CCC1C(C)C (stereo not drawn) [N-ethyl p-menthane-3-carboxamide, reference compound] | 0.2 |
